Patent publication US20160151458A1, “Use Of Unacylated Ghrelin, Fragments And Analogs Thereof As Antioxidant” (ALIZE PHARMA SAS, priority 2013, published 2016)

Tests used:
[1] = test system: unilateral hind limb ischemia in C57BL/6J mice (ischemic gastrocnemius muscle); assay: Murine hind-limb ischemia model; format: in vivo; details: for Pax-7/MyoD+ cells in ischemic muscles: FIG. 2A
Protocol: (§1) Male C57BL/6J mice (Charles River Lab., Wilmington, Mass., USA) were anesthetized and unilateral hind limb ischemia was induced as described^42. The normo-perfused contralateral limb of each mouse was used as an internal control. After hind-limb ischemia, animals (18 mice per group) were treated by intra-peritoneal injection daily from 0 to day 21 with either saline, AG (100 μg/kg) or UAG (100 μg/kg). In selected experiments, mice received intramuscular injections of pre-miR oligonucleotides (5 mice/group). To induce toxic damage, 100 μl of 1% barium chloride (BaCl2, Sigma Aldrich) was injected unilaterally into the hind limb (9 mice). Mice were treated according to European Guidelines and policies as approved by the University of Turin Ethical Committee.
Semiquantitative estimation (by repeated measures analyzed with ANOVA and Newman-Keuls Multiple Comparison test) of foot damage was performed serially using the following classification: 3=dragging of foot (foot necrosis), 2=no dragging but no plantar flexion (foot damage), 1=plantar flexion but no toe flexion (toe damage), and 0=flexing the toes to resist gentle traction on the tail (no damage)^43.
(§2) Gastrocnemius muscle sections from ischemic or normo-perfused limbs were stained with hematoxylin and eosin for histological analysis. The proportion of fibers with central nuclei (regenerating fibers) was measured by MetaMorph software (Life Sciences Research Imaging Systems) in the injured area and the cross-sectional areas of the fibers in the injured and non-injured areas. For IF analysis, muscle sections were processed as described previously^44. The number of cells expressing the indicated markers or CD31 positive vessels was evaluated as previously described^34.
(§3) Intracellular ROS production was evaluated using DCF-DA (5-(and-6)-carboxy-2′,7′-dichlorofluorescein diacetate, […] final concentration) (Molecular Probe, Invitrogen) assay as previously described^23. The formation of TBARS was determined in muscles using the OXI-TEK kit (ZeptoMetrix Corp.) and a luminescence spectrometer (Bio-Rad Laboratories, Hercules, Calif.) with excitation set at 530 nm, emission at 550 nm to measure in-vivo oxidative stress levels^33.

[2] = test system: BaCl2-injected gastrocnemius muscles of C57BL/6J mice; assay: Toxic muscle damage induced by 1% barium chloride (BaCl2); format: in vivo; details: 1% BaCl2; FIG. 3E
Protocol: as §1, §2

primary SCs = assay: In-vitro ischemia of primary SCs from normo-perfused muscles; format: cell-based, C57BL/6J mice; details: 1 μmol/L, 1% O2 24 h
Protocol: (§4) SCs were isolated from gastrocnemius muscles of C57BL/6J wild type mice subjected to ischemia or C57BL/6J mice lacking the GHSR1a and ghrelin genes (10 mice, kind gift of Professor M. Tschöp)^39. To obtain SCs, muscle samples were subjected to enzymatic digestion as described^45. In selected experiments, SCs were recovered from normo-perfused muscles and subjected to in-vitro ischemia in presence of saline, AG (1 μmol/L) or UAG (1 μmol/L). In-vitro ischemia was induced by incubating cells in DMEM+2% FCS at 5% CO2/95% N2 humidified atmosphere, yielding 1% O2 concentrations for 24 h^18. The in-vitro ischemia was also performed in the presence of SB202190 (1 μmol/L).
(§5) SC cell-cycle progression was evaluated by evaluating the percentage of PCNA-positive cells or by FACS analysis as previously described^46. The percentage of cells in each cell cycle phase was determined by ModFit LT software (Verity Software House. Inc, topsham, ME, USA). Celss proliferation was also assayed by evaluating the percentage of PCNA-positive cells by FACS analysis.
(§6) Cells were lysed and protein detection was obtained as previously described^47. Cells were lysed (50 mmol/L Tris HCl [pH 8.3], 1% Triton X-100, 10 mmol/L PMSF, 100 U/ml aprotinin, 10 μmol/L leupeptin) and protein concentrations were obtained as previously described^47. […] Densitometric analysis was used to calculate the differences in the fold induction of protein levels and normalized to tubulin, a actin or p38MAPK content. Values are reported as relative amount
as §3
(§7) Total RNA was isolated using TRIzol reagent (Invitrogen) from SCs recovered from muscles of treated animals or from SCs subjected to in-vitro ischemia. miR-221/222 expression was evaluated by qRT-PCR as previously described^48. Loss-of-function experiments were performed in SCs transfected for 48 h with anti-miRNA negative control, anti-miR-221/222 antagonists (Applied Biosystem, Foxter Cyto CA, USA), according to the manufacturer's instructions^48.

[3] = test system: SCs transfected with anti-miR-221/222; assay: Loss-of-function: SCs transfected with anti-miR-221/222 antago-miRs; format: cell-based, mice; details: anti-miR-221/222 transfected SCs; data not shown
Protocol: as §7

[4] = test system: satellite cells (SCs) from ischemic muscles; assay: SCs recovered from ischemic muscles of treated mice (ex vivo analysis); format: in vivo, C57BL/6J mice
Protocol: as §1, §4, §6, §3, §7

GHSR-1a = GHSR-1a (Homo sapiens, UniProt Q92847); details: at physiological concentrations; cited from earlier work
[5] = test system: SCs transfected with SOD-2 siRNA; assay: In-vitro ischemia of SCs silenced for SOD-2 by siRNA; format: cell-based, C57BL/6J mice
Protocol: as §4, §5, §6, §3, §7
To obtain SOD-2 inactivation, SCs were transiently transfected with siRNA for SOD-2 or with duplex siRNAs (Qiagen, Valencia, Calif., USA) as previously described^44. Transfection was performed according to the manufacturer's instructions. Whole cell extracts were processed 48 h after transfection. Cell viability was evaluated at the end of each experiment.

[6] = test system: C2C12 mouse muscular cell line; assay: ROS production (DCF-DA) in C2C12 cells under oxidative stress; format: cell-based; details: 1 μmol/L; stress by hypoxia (1% O2), AGEs, hyperglycemia (25 mM) or H2O2; FIG. 8
Protocol: Kinetic analysis of ROS production was evaluated by using DCF-DA (5-(and-6)-carboxy-2′,7′-dichlorofluorescein diacetate, 0.5 μmol/L final concentration) (Molecular Probe, Invitrogen) assay. C2C12 cells were cultured with 400 μg/ml Advanced Glycated End-product (AGE) or 25 mM glucose (high glucose HG) for 48 h, H2O2 (100 μM) for 2 h. In parallel experiments C2C12 cells were subjected to hypoxia (DMEM+2% FCS in a 5% CO2-95% N2 humidified atmosphere, yielding to 1% O2 concentrations for 24 h). UAG (1 μmol/L) AZP 531 (1 μmol/L) or AZP-502 (1 μmol/L) was added where indicated.

healthy volunteers = details: administered concomitantly with ghrelin; cited from earlier work
SCs from double KO mice = assay: In-vitro ischemia of SCs from double KO mice lacking the GHSR1a and ghrelin genes; format: cell-based, C57BL/6J mice lacking the GHSR1a and ghrelin genes
Protocol: as §4, §5, §6, §3

Sequence of GHSR-1a (Q92847 whole entry): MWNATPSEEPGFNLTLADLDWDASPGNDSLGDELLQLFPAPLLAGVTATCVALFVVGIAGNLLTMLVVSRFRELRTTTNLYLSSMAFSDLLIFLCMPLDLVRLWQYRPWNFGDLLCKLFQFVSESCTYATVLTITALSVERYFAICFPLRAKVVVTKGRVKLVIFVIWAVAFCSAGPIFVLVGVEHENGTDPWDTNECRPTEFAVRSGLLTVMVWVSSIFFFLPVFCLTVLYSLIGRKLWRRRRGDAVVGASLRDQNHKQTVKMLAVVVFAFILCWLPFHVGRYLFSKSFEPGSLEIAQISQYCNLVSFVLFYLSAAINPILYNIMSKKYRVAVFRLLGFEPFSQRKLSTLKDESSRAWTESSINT

With “Gly-Ser-Ser-Phe-Leu-Ser-Pro-Glu-His-Gln-Arg-Val-Gln-Gln-Arg-Lys-Glu-Ser-Lys-Lys-Pro-Pro-Ala-Lys-Leu-Gln-Pro-Arg (GSSFLSPEHQRVQQRKESKKPPAKLQPR; listed as Homo sapiens) [UAG]” the “protection against ischemia-induced damage (overall in vivo effect)” value ([1]; 100 μg/kg i.p. daily) was “protect against ischemia-induced damage”, the “foot damage (functional score)” value ([1]; 100 μg/kg i.p. daily from day 0, FIG. 1A) was “damage was significantly higher in saline- and AG-treated groups than in the UAG-treated group” and the “capillary density, ischemic vs contralateral control muscles of the same animals” value ([1]; 100 μg/kg i.p. daily, FIG. 1B) was “no such differences were observed”. The “number of functional vessels in ischemic muscles” value ([1]; 100 μg/kg i.p. daily, FIG. 1B) was “larger number of functional vessels”, the CD68-positive inflammatory cells ([1]; 100 μg/kg i.p. daily, FIG. 1E) was “reduced number of CD68-positive inflammatory cells” and the “regenerating myofibers in gastrocnemius muscles” value ([1]; 100 μg/kg i.p. daily, FIGS. 1C, 1D) was “increased number of regenerating myofibers”. For the same substance, the “myogenin-positive cells in ischemic muscles” value ([1]; FIGS. 2E, 2F) was “increased number of myogenin-positive cells”, the “Pax-7/MyoD+ cells in ischemic muscles” value ([1]; day 7) was “increased number of Pax-7/MyoD+ cells” and the “Pax-7/MyoD+ cells in ischemic muscles” value ([1]; day 21) was “scattered Pax-7/MyoD+ cells were still present”. For the same substance, the “SOD-2/Pax-7+ cells in ischemic muscle” value ([1]; double immunostaining, day 7, FIG. 3D) was “increased number of SOD-2/Pax-7+ cells”, the “regeneration of skeletal muscle after ROS-independent toxic damage” value [2] was “regeneration of skeletal muscle was no longer observed” and the PCNA expression (primary SCs; FACS, FIG. 4D) was “increased PCNA expression”. For the same substance, the “number of cells in S phase” value (primary SCs; FACS, FIG. 4E) was “increased”, the pp38/MAPK level (primary SCs; FIG. 4C) was “increased levels of pp38/MAPK” and the “ROS production (DCF-DA)” value (primary SCs; FIG. 4F) was “ROS production was decreased”. The SOD-2 expression (primary SCs; FIG. 4G) was “SOD-2 expression increased”, the “expression of Pax-7, MyoD and myogenin” value (primary SCs; FIGS. 4A, 4B) was “only UAG challenge induced expression” and the “cell-cycle entry and expression of SOD-2, Pax-7, MyoD, myogenin” value [3] was “no longer had any effect”. For the same substance, the p-p38/MAPK levels [3] was “p-p38/MAPK levels were reduced”, the “expression of miR-221 and miR-222 in SCs (qRT-PCR)” value ([4]; SCs from muscles of treated mice vs controls, FIG. 6A) was “significantly increased” and the “ROS production in SCs (DCF-DA)” value ([4]; SCs from treated mice, FIG. 3B) was “ROS production was lower”. The “SOD-2 protein expression in SCs” value ([4]; SCs from treated mice, Western blot, FIG. 3C) was “SOD-2 protein expression higher”, the “phospho(p)-p38/MAPK protein level in SCs” value ([4]; Western blot, FIG. 2C) was “found to be higher” and the “number of isolated Pax-7/MyoD/Myf5+ SCs” value ([4]; ex vivo, FIGS. 2B-2D) was “significantly increased number of Pax-7/MyoD/Myf5+SCs”. For the same substance, the “binding to GHSR-1a” value (GHSR-1a) was “fails to bind”, the “UAG-induced miR-221/222 expression” value ([5]; SOD-2 knock-down, FIG. 7B) was “SOD-2 knock-down prevents UAG-induced miR-221/222 expression” and the “protection against ROS generation” value ([5]; SOD-2 silenced, FIG. 5B) was “did not protect SCs against ROS generation”. For the same substance, the cell-cycle progression ([5]; SOD-2 silenced, FIG. 5C) was “the cells did not undergo cell-cycle progression”, the p38/MAPK phosphorylation ([5]; SOD-2 silenced, FIG. 5D) was “did not induce p38/MAPK phosphorylation” and the “protection against oxidative stress (ROS production)” value [6] was “have a protective effect on C2C12 cells against oxidative stress”. The “effect on the hyperglycemic effects of ghrelin” value (healthy volunteers) was “prevent the hyperglycemic effects of ghrelin”, the SC cell-cycle progression (SCs from double KO mice; FIG. 5G) was “only UAG promoted SC cell-cycle progression” and the SOD-2 expression (SCs from double KO mice; FIG. 5I) was “induced SOD-2 expression”. For the same substance, the “protection from ROS generation” value (SCs from double KO mice; FIG. 5J) was “protected SCs from ROS generation” and the “p-p38/MAPK, Pax-7, MyoD, Myf5 and myogenin expression” value (SCs from double KO mice; FIGS. 5H, 5I) was “induced p-p38/MAPK, Pax-7, MyoD, Myf5 and myogenin expression”.
